The source made the active and inactive calls.
Assays:
HA22T cell line [1] = assay: Induction of apoptosis in human HA22T cells assessed as accumulation at subG1 phase at 0.5 to 4 uM by flow cytometry; assay type: functional, cell-based
Hep 3B2 [2] = assay: Induction of apoptosis in human Hep3B cells assessed as accumulation at subG1 phase at 0.5 to 4 uM by flow cytometry; assay type: functional, cell-based
HA22T cell line [3] = assay: Induction of apoptosis in human HA22T cells >= 2 uM incubated for 48 hrs by annexin-V-FITC staining based by flow cytometry relative to control; assay type: functional
SK-HEP1 [4] = assay: Induction of apoptosis in human SKHEP1 cells >= 2 uM incubated for 48 hrs by annexin-V-FITC staining based by flow cytometry relative to control; assay type: functional
Hep 3B2 [5] = assay: Induction of necrosis in human Hep3B cells >= 2 uM incubated for 48 hrs by annexin-V-FITC staining based by flow cytometry relative to control; assay type: functional
Homo sapiens [6] = species on record: Homo sapiens; assay: Induction of necrosis in human PLC5cells >= 2 uM incubated for 48 hrs by annexin-V-FITC staining based by flow cytometry relative to control; assay type: functional
HA22T cell line [7] = assay: Induction of apoptosis in human HA22T cells assessed as caspase-9 activation at 0.5 to 4 uM incubated for 48 hrs by Western blotting analysis; assay type: functional, cell-based
Hep 3B2 [8] = assay: Induction of apoptosis in human Hep3B cells assessed as caspase-9 activation at 0.5 to 4 uM incubated for 48 hrs by Western blotting analysis; assay type: functional, cell-based
HA22T cell line [9] = assay: Induction of apoptosis in human HA22T cells assessed as caspase-3 activation at 0.5 to 4 uM incubated for 48 hrs by Western blotting analysis; assay type: functional, cell-based
Hep 3B2 [10] = assay: Induction of apoptosis in human Hep3B cells assessed as caspase-3 activation at 0.5 to 4 uM incubated for 48 hrs by Western blotting analysis; assay type: functional, cell-based
SK-HEP1 [11] = assay: Induction of apoptosis in human SKHEP1 cells assessed as caspase-3 activation at 0.5 to 4 uM incubated for 48 hrs by Western blotting analysis; assay type: functional, cell-based
Homo sapiens [12] = species on record: Homo sapiens; assay: Induction of apoptosis in human PLC5 cells assessed as induction of PARP cleavage at 0.5 to 4 uM incubated for 48 hrs by Western blotting analysis; assay type: functional, cell-based
Hep 3B2 [13] = assay: Induction of apoptosis in human Hep3B cells assessed as induction of PARP cleavage at 2 uM in presence of caspase inhibitor Z-VAD-fmk incubated for 48 hrs by Western blotting analysis; assay type: functional, cell-based
Homo sapiens [14] = species on record: Homo sapiens; assay: Induction of apoptosis in human PLC5 cells assessed as induction of PARP cleavage at 2 uM in presence of caspase inhibitor Z-VAD-fmk incubated for 48 hrs by Western blotting analysis; assay type: functional, cell-based
Hep 3B2 [15] = assay: Induction of apoptosis in human Hep3B cells at 2 uM in presence of caspase inhibitor Z-VAD-fmk incubated for 48 hrs by annexin-V-FITC staining based by flow cytometry; assay type: functional, cell-based
HA22T cell line [16] = assay: Inhibition of CIP2A protein expression in human HA22T cells assessed as CIP2A protein expression ratio level at 4 uM by Western blotting analysis (Rvb =1); assay type: functional
Hep 3B2 [17] = assay: Inhibition of CIP2A protein expression in human Hep3B cells assessed as CIP2A protein expression ratio level at 2 uM by Western blotting analysis (Rvb =1); assay type: functional
[18] = Inhibition of CIP2A protein expression in human PLC5 cells assessed as CIP2A protein expression ratio level at 1 uM by Western blotting analysis (Rvb =1); assay type: functional
[19] = Inhibition of CIP2A protein expression in human PLC5 cells assessed as CIP2A protein expression ratio level at 2 uM by Western blotting analysis (Rvb =1); assay type: functional
[20] = Inhibition of CIP2A protein expression in human PLC5 cells assessed as CIP2A protein expression ratio level at 4 uM by Western blotting analysis (Rvb =1); assay type: functional
SK-HEP1 [21] = assay: Inhibition of CIP2A protein expression in human SKHEP1 cells assessed as CIP2A protein expression ratio level at 0.5 uM by Western blotting analysis (Rvb =1); assay type: functional
SK-HEP1 [22] = assay: Inhibition of CIP2A protein expression in human SKHEP1 cells assessed as CIP2A protein expression ratio level at 1uM by Western blotting analysis (Rvb =1); assay type: functional
SK-HEP1 [23] = assay: Inhibition of CIP2A protein expression in human SKHEP1 cells by Western blotting analysis; assay type: functional, cell-based
Hep 3B2 [24] = assay: Inhibition of CIP2A protein expression in human Hep3B cells by Western blotting analysis; assay type: functional, cell-based
[25] = target: T1, Serine/threonine-protein kinase AKT (Homo sapiens) (UniProt P31751+Q9Y243+P31749); assay: Inhibition of Akt phosphorylation at S473 residue in human HA22T cells by Western blotting analysis; assay type: cell-based
T1 sequence (P31749 whole entry, looked up): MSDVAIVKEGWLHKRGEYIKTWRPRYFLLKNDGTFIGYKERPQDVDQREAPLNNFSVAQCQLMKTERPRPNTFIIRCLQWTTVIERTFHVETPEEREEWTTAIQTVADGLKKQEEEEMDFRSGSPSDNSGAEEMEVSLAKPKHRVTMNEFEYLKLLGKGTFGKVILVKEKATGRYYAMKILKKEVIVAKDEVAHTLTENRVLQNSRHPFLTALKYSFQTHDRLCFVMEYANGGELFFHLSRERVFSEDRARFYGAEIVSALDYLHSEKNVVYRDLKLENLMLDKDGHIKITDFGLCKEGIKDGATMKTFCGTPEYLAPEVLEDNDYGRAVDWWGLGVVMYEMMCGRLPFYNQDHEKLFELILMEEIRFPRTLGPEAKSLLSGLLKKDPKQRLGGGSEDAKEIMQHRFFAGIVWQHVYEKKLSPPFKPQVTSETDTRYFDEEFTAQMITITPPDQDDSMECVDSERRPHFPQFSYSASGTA
T1 sequence (P31751 whole entry, looked up): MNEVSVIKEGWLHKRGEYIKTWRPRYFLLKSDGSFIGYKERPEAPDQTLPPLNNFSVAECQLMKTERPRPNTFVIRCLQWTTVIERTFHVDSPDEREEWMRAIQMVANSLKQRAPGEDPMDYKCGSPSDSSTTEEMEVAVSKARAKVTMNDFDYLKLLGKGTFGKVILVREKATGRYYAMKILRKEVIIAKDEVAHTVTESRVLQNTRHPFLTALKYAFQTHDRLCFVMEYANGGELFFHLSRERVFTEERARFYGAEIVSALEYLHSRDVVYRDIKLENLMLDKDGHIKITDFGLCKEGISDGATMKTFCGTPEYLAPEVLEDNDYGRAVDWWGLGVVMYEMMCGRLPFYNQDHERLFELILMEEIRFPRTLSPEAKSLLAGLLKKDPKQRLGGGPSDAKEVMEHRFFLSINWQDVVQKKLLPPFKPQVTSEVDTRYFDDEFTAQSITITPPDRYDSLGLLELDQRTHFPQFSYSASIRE
T1 sequence (Q9Y243 whole entry, looked up): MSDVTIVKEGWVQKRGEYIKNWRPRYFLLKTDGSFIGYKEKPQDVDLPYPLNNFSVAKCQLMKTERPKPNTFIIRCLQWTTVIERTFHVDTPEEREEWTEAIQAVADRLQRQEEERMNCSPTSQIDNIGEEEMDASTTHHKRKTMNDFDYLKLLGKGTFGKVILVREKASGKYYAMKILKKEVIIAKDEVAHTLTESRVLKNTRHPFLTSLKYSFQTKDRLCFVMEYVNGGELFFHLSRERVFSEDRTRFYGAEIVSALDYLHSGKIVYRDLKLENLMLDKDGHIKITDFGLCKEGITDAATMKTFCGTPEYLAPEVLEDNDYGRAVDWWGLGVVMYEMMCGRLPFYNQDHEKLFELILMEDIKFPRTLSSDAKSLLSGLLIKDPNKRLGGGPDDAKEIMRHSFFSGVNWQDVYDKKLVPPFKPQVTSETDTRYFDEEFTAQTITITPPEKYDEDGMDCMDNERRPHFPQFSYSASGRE

HA22T cell line [26] = assay: Inhibition of CIP2A protein expression in human HA22T cells at 1 uM by Western blotting analysis; assay type: functional, cell-based; conditions: TDE = time-dependent effect
Homo sapiens [27] = species on record: Homo sapiens; assay: Inhibition of PP2A-A protein expression in human PLC5 cells at 1 uM incubated for 24 hrs by Western blotting analysis; assay type: functional, cell-based
Homo sapiens [28] = species on record: Homo sapiens; assay: Inhibition of PP2A-C protein expression in human PLC5 cells at 1 uM incubated for 24 hrs by Western blotting analysis; assay type: functional, cell-based
Hep 3B2 [29] = assay: Inhibition of PP2A-C protein expression in human Hep3B cells at 1 uM incubated for 24 hrs by Western blotting analysis; assay type: functional, cell-based
HA22T cell line [30] = assay: Inhibition of PP2A-A protein expression in human HA22T cells at 1 uM incubated for 24 hrs by Western blotting analysis; assay type: functional, cell-based
HA22T cell line [31] = assay: Inhibition of PP2A-B5 protein expression in human HA22T cells at 1 uM incubated for 24 hrs by Western blotting analysis; assay type: functional, cell-based
HA22T cell line [32] = assay: Inhibition of PP2A-C protein expression in human HA22T cells at 1 uM incubated for 24 hrs by Western blotting analysis; assay type: functional, cell-based
Homo sapiens [33] = species on record: Homo sapiens; assay: Induction of apoptosis in human PLC5 cells with ectopic over expression of myc-tagged CIP2A at 2 uM incubated for 24 hrs by annexin-V-FITC staining based by flow cytometry; assay type: functional, cell-based
[34] = target: T1, Serine/threonine-protein kinase AKT (Homo sapiens); assay: Inhibition of Akt phosphorylation at S473 residue in human PLC5 cells at 2 uM incubated for 24 hrs in presence of PP2A-C siRNA by Western blotting analysis; assay type: cell-based
Homo sapiens [35] = species on record: Homo sapiens; assay: Induction of CIP2A protein degradation in human PLC5 cells incubated for 4 to 24 hrs; assay type: functional, cell-based
Homo sapiens [36] = species on record: Homo sapiens; assay: Inhibition of human CIP2A gene promoter -110/-1 mutant construct activity in human PLC5 cells by luciferase reporter gene assay; assay type: cell-based
Homo sapiens [37] = species on record: Homo sapiens; assay: Inhibition of human CIP2A gene promoter in human PLC5 cells with ectopic overexpression of GFP-tagged Elk-1 assessed as inhibition of ELK1 protein expression at 2 uM by Western blotting analysis; assay type: cell-based
Homo sapiens [38] = species on record: Homo sapiens; assay: Activation of PP2A in human HA22T cells assessed as minimal concentration causing increase in protein phosphatase activity incubated for 24 hrs using phosphopeptide substrate incubated for 10 mins by malachite green-phosphate complex assay; assay type: cell-based
Homo sapiens [39] = species on record: Homo sapiens; assay: Activation of PP2A in human SKHEP1 cells assessed as minimal concentration causing increase in protein phosphatase activity incubated for 24 hrs using phosphopeptide substrate incubated for 10 mins by malachite green-phosphate complex assay; assay type: cell-based

C#Cc1cccc(Nc2nc3ccccc3nc2Nc2cccc(C#C)c2)c1
0.01: Ratio (HA22T cell line [16]) | Ratio [19] | Ratio [20]
0.32: Ratio (SK-HEP1 [22])
100 to 200 nM: MEC (Homo sapiens [38]) | MEC (Homo sapiens [39])
0.73: Ratio (SK-HEP1 [21])
active: Activity (HA22T cell line [1]) | Activity (Hep 3B2 [2]) | Activity (HA22T cell line [7]) Dose-dependent effect | Activity (Hep 3B2 [8]) Dose-dependent effect | Activity (HA22T cell line [9]) Dose-dependent effect | Activity (Hep 3B2 [10]) Dose-dependent effect | Activity (SK-HEP1 [11]) Dose-dependent effect | Activity (Homo sapiens [12]) Dose-dependent effect | inhibition (SK-HEP1 [23]) Dose-dependent effect | inhibition (Hep 3B2 [24]) Dose-dependent effect | inhibition [25] Dose-dependent effect | inhibition (HA22T cell line [26]) Tde
0.28: Ratio [18]
0.49: Ratio (Hep 3B2 [17])
inactive: Activity (Hep 3B2 [13]) | Activity (Homo sapiens [14]) | Activity (Hep 3B2 [15]) | inhibition (Homo sapiens [27]) | inhibition (Homo sapiens [28]) | inhibition (Hep 3B2 [29]) | inhibition (HA22T cell line [30]) | inhibition (HA22T cell line [31]) | inhibition (HA22T cell line [32]) | Activity (Homo sapiens [33]) | inhibition [34] | Activity (Homo sapiens [35]) | inhibition (Homo sapiens [36]) | inhibition (Homo sapiens [37])
50%: Activity (HA22T cell line [3]) | Activity (SK-HEP1 [4]) | Activity (Hep 3B2 [5]) | Activity (Homo sapiens [6])
